# Entries after “also recorded” stand apart in the source; their conditions may differ.
# Assays:
# [1] = biological target: T1, native insulin receptor (Insr) (Rattus norvegicus, UniProt P15127); assay: In vitro cell-free phosphorylation of native insulin receptor; type: biochemical
# T1 construct: native insulin receptor proteins, containing both alpha and beta subunits; purchased Sigma I9266; host or cells: purified from rat liver tissue
# Protocol: In vitro phosphorylation of Insr was performed according to Sigma's protocol with the following modifications. In brief, 10 μl of native insulin receptor solution containing 0.8 μl of original native INSR stock solution (Sigma, Catalog #I9266; diluted in enzyme dilution buffer containing 50 mM HEPES, pH 7.6, 150 mM NaCl and 0.1% Triton X-100) were incubated with equal volume of solutions containing insulin (Sigma), DMSO (Compound #43 solvent), Compound #43 or Compound #68 (diluted in 50 mM HEPES, pH 7.6 and 100 μg/ml bovine serum albumin) on ice for 30 min. Then 20 μl of 2× kinase buffer containing 0.2 mM ATP, 50 mM HEPES, pH 7.6, 50 mM MgCl2 and 4 mM MnCl2 were added to the above reactions, mixed and incubated on ice for 45 minutes.
# Five microliters of the above reactions were immediately subjected to Western blot analysis using specific antibodies against phosphorylated tyrosine residues at 1146, 1150 and 1151 of Insrβ proteins (Cell Signaling Inc.). Protein band density was determined using the NIH Image J software.
# HepG2 cells = assay: Glucose production assay in HepG2 cells; type: cell-based, human; settings: for reduction in glucose production: serum-free; for reduction in glucose production / reduction in glucose production compared with 100 nM insulin / CDE: 48 hr
# Protocol: Equal numbers of Human HepG2 or rat H4IIE cells (1-1.5×10^5 cells/well) were seeded on 96 well plates in 10% FBS-containing media for 24 hr. Cells were then washed twice with PBS, and treated with various concentrations of compounds, metformin or insulin in 100 μl of glucose production media (glucose-free, phenol red-free DMEM media supplemented with 20 mM sodium lactate, 2 mM sodium pyruvate and 5 mM HEPES) at 37° C. for 24 hr (H4IIE cells only) or 48 hr (HepG2 cell only). Cells were also incubated with 0.24% DMSO (the maximal volume of DMSO solvent used in the experiments).
# After the above treatments, 50 μl of culture media were collected, and subjected to glucose analysis using Molecular Probes Amplex Red glucose assay kit (Cat #A22189) according to the manufacturer's protocol. Cell numbers or viability in the culture plate after the above compound treatments were determined using Promega's CellTiter96® AQueous One Solution Cell Proliferation Assay kits, according to the manufacturer's protocol and instructions. In brief, after removing 50 μl of culture media for glucose assay, cells were incubated with AQueous One solution (25 μl stock solution and 50 μl prewarmed PBS/per well) at 37° C. for 1 hour, and the absorbance of OD490 nm in each sample was determined by the Bio-Tek microplate reader. Cell viability in culture wells were determined by the subtraction of OD490 nm in cultured cells with the OD490 nm in plain culture media (without seeding of cells). Glucose production in the culture cells were obtained by normalizing the glucose concentration in culture media by cell viability in each well. At least 3 samples per each treatment were examined for the above analysis. Data are presented as Mean±SEM of those samples. Experiments were repeated at least twice.
# The half maximal inhibitory concentration (IC50 values) of Compound #43 or metformin for the inhibition of glucose production were determined using the ED50 Plus v1.0 online software.
# Insrβ/Pdk1/Akt/AS160 = assay: Western blot of Insrβ/Akt/AS160 phosphorylation in differentiated C2C12 cells; type: cell-based, mouse; settings: for pInsrβ levels: 200 nM insulin or 600 ppb Compound #43, prolonged treatment 60 minutes
# Protocol: To differentiate the C2C12 cells, equal number of these myoblast cells were firstly seeded on 12-well plates (60,000 cells/well) and cultured in 10% FBS DMEM media at 37° C. for 5 days. These cells were replenished daily with fresh 10% FBS DMEM media. At day 5 after the culture, C2C12 cells were differentiated using 0.5% horse serum (Sigma)-containing DMEM media (differentiation media) for 7 days with daily replacement of fresh differentiation media, similar to previous described (Misu et al, Cell Metabolism 12, 483-495, 2010). At day 7 after the differentiation, differentiated C2C12 cells were rinsed with PBS twice and incubated in serum-free DMEM media overnight. Then these serum-starved cells were treated without (basal) or with insulin (200 nM), Compound #43 (600 ppb), or both insulin and Compound #43 in serum-free DMEM media at 37° C. for 5 and 60 minutes.
# After the above treatments, cultured HepG2 cells or differentiated C2C12 cells were rinsed twice with ice-cold PBS and lysed in ice-cold RIPA buffer containing complete proteinase and phosphatase inhibitors (Thermo-Fisher Scientific, Waltham, Mass.) on ice for 30 min. Cell lysates were collected using a cell scraper and transfer pipette, and then centrifuged at 12000×g for 30 min at 4° C. to remove the DNA pellet and obtain the protein extract. Protein levels in the supernatant of these cell lysates were determined using the Pierce Micro-BCA protein assay kit (Thermo Scientific-Piece Biotechnology, Rockford, Ill.) according to the manufacturer's protocol.
# One hundred micrograms of skeletal muscle or liver tissue proteins, five micrograms of HepG2 cell protein extracts, or eight micrograms of differentiated C2C12 cell protein extracts were subjected to SDS-PAGE gel separation and then transferred to PVDF membranes, as described previously (Reddy et al. 2008 Science). Membranes were blocked in a phosphate-buffered saline (PBS) containing 5% (w/v) of bovine serum albumin (Sigma, St. Louis, Mo.) and incubated with specific primary antibodies followed by the incubation with HRP-conjugated anti-mouse or anti-rabbit secondary antibodies (1:5000 dilution, Cell Signaling Inc.). All primary antibodies were purchased from Cell Signaling Inc, except the antibodies against β-tubulin (LI-COR bioscience). Positive signals on the membrane blots were detected using the Amersham's enhanced chemiluminescence Western Blotting Prime Detection reagents (GE Healthcare Lifescience, Pittsburgh, Pa.). Images of these luminescence signals on the membrane blots were captured using the LI-COR Odyssey Fc Image system (Lincoln, Nebr.). The same membrane blot was stripped and re-blotted with another antibody as described in the GE WB ECL-prime-detection protocol (GE healthcare Lifescience, Pittsburgh, Pa.). Protein band densities in the Western blots were determined using the NIH ImageJ software and then normalized by β-tubulin or ACTB protein level in each sample. Data are presented as mean±SEM of 3-5 samples per group.
# [2] = 200 nM insulin or 600 ppb Compound #43, 5 minutes
# [3] = 200 nM insulin or 600 ppb Compound #43, 60 minutes
# T1 sequence (P15127 764-1383 limits assumed): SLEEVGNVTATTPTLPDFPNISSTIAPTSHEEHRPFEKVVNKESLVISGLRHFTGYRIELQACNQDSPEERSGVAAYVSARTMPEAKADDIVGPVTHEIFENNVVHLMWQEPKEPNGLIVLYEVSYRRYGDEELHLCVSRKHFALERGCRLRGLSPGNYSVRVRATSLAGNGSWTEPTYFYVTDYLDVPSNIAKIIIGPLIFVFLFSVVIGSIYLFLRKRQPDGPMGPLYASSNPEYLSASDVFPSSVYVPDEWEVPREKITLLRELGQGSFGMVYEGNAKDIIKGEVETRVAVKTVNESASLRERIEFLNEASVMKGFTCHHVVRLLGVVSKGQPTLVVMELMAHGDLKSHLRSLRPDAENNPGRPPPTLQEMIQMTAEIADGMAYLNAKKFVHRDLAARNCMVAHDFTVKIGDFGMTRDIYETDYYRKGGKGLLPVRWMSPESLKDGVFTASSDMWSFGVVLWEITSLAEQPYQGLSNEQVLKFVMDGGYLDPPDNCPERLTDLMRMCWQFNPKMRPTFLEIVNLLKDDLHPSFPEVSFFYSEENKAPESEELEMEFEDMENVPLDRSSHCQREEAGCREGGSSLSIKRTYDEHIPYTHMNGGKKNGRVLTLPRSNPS
# T1 sequence (P15127 27-759 partner limits assumed): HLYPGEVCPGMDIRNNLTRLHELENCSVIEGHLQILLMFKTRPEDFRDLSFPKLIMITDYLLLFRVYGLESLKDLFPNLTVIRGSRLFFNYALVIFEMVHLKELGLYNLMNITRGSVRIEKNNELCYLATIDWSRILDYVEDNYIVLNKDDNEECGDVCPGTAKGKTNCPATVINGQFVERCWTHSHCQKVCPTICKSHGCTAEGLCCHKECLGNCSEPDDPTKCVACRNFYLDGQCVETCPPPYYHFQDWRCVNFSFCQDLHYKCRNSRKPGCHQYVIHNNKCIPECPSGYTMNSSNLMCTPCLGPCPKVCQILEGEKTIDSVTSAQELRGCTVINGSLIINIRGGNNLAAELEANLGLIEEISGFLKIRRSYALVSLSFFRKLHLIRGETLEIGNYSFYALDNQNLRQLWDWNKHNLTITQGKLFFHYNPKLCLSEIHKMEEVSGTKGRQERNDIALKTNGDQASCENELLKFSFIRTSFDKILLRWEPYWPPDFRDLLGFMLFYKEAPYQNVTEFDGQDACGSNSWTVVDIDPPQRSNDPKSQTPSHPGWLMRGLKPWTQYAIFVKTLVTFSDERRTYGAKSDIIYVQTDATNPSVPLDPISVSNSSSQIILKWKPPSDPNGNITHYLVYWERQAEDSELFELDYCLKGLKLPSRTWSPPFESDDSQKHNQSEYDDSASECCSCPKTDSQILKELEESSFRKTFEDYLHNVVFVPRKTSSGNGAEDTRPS
compound,measurement,setting,value
"insulin: insulin purchased from Sigma, positive control",phosphorylation of Insrβ at Y1146/1150/1151,"[1]; insulin 0.5 μM, cell-free (FIG. 26)",able to induce the phosphorylation of Insrβ at Y1146/1150/1151
same,reduction in glucose production,HepG2 cells; 10 nM insulin,20%
same,reduction in glucose production,HepG2 cells; 100 nM insulin,30%
same,pInsrβ at Y1146,Insrβ/Pdk1/Akt/AS160; [2],significant increase of pInsrβ at Y1146
same,phosphorylated Akt protein levels,Insrβ/Pdk1/Akt/AS160; [2],significant increase of phosphorylated Akt
same,phosphorylated Akt protein levels,Insrβ/Pdk1/Akt/AS160; [3],not observed
same,pInsrβ levels,Insrβ/Pdk1/Akt/AS160,decrease in pInsrβ levels
same,increase in phosphorylation of AS160 at S588,"Insrβ/Pdk1/Akt/AS160; 200 nM insulin, 5 min",about 2 fold
same,phosphorylated AS160,"Insrβ/Pdk1/Akt/AS160; 200 nM insulin, 60 minutes",no obvious increase in phosphorylated AS160
"C[Se]C[C@H]1O[C@@H](n2cnc3c(N)ncnc32)C(OC(C)=O)C1OC(C)=O (stereo partly shown) [Compound #43, Adenosine, 5′-Se-methyl-5′-selino-, 2′,3′-diacetate]",phosphorylation of Insrβ at Y1146/1150/1151,"[1]; doses of 1.9 and 3.8, cell-free (FIG. 26)",significantly enhance the phosphorylation of Insrβ at Y1146/1150/1151
same,reduction in glucose production compared with 100 nM insulin / CDE,HepG2 cells; 3.8 μM,as potent as the CDE combination product
same,reduction in glucose production compared with 100 nM insulin / CDE,"HepG2 cells; 3.8 μM, listed as compound #43",comparable to that achieved when insulin (100 nM) was used
same,reduction in glucose production compared with 100 nM insulin / CDE,"HepG2 cells; 7.6 μM or higher (7.6, 15.2 and 30.4 μM)",much more potent than 100 nM insulin; also recorded: more potent than CDE
same,relative potency among tested compounds in inhibiting glucose production,HepG2 cells; FIG. 1 left-hand panel,the most potent
same,IC50,"HepG2 cells; Homo sapiens, HepG2, 48 hr, read-out: IC50 (inhibition of glucose production)",15.5 µM
same,effect on glucose production in HepG2 cells,"HepG2 cells; tested doses, serum-free glucose production media, 48 hr (FIG. 1)",decrease in glucose levels in the culture media; also recorded: inhibited glucose production
same,pInsrβ at Y1146,Insrβ/Pdk1/Akt/AS160; [2],significant increase of pInsrβ at Y1146
same,phosphorylated Akt protein levels,Insrβ/Pdk1/Akt/AS160; [2],did not cause a significant increase of phosphorylated Akt protein levels
same,phosphorylated Akt protein levels,Insrβ/Pdk1/Akt/AS160; [3],robust increased of phosphorylated Akt proteins levels
same,pInsrβ levels,Insrβ/Pdk1/Akt/AS160,decrease in pInsrβ levels
same,phosphorylated AS160 and total AS160 protein levels,"Insrβ/Pdk1/Akt/AS160; 600 ppb alone, 5 minutes",did not affect the protein levels of phosphorylated AS160 and total AS160
same,increase in phosphorylated AS160 at S588,"Insrβ/Pdk1/Akt/AS160; 600 ppb, 60 minutes",about 6 fold
same,pInsrβ protein levels,"Insrβ/Pdk1/Akt/AS160; co-treatment insulin 200 nM and Compound #43 600 ppb, 5 minutes",tended to increase pInsrβ protein levels
same,phosphorylated AS160 protein levels,"Insrβ/Pdk1/Akt/AS160; co-treatment insulin and Compound #43, 5 and 60 minutes",significant increase of phosphorylated AS160 protein levels
same,pAkt protein levels,"Insrβ/Pdk1/Akt/AS160; co-treatment insulin and Compound #43, both tested time points",significant increase of pAkt protein levels

# Source: patent US11613552B2, “Pharmaceutical agents, compositions, and methods relating thereto” (Alltech, Inc., priority 2017, dated 2023)
